ChEMBL document CHEMBL5625252, “Synthesis of peptidomimetics as antibiotic adjuvants for combination with aztreonam to combat MDR Pseudomonas aeruginosa” (Eur J Med Chem, 2023)
In brackets after ≈: the same amount, converted by molar mass.

Columns and labels:
Assay type in all cases: functional
[1] = test system: Escherichia coli; assay: Antibacterial activity against ESBLs (-) Escherichia coli ATCC 25922 assessed as inhibition of bacterial growth incubated for 18 hrs by agar dilution method
[2] = test system: Escherichia coli; assay: Antibacterial activity against NDM-1 (+) Escherichia coli CDC 1001728 assessed as inhibition of bacterial growth incubated for 18 hrs by agar dilution method
[3] = test system: Escherichia coli; assay: Antibacterial activity against ESBLs (+) Escherichia coli 16-1 assessed as inhibition of bacterial growth incubated for 18 hrs by agar dilution method
[4] = test system: Escherichia coli; assay: Antibacterial activity against mcr-1 (+) Escherichia coli 08-85 assessed as inhibition of bacterial growth incubated for 18 hrs by agar dilution method
[5] = test system: Klebsiella pneumoniae; assay: Antibacterial activity against ESBLs (+) Klebsiella pneumoniae ATCC 700603 assessed as inhibition of bacterial growth incubated for 18 hrs by agar dilution method
[6] = test system: Klebsiella pneumoniae; assay: Antibacterial activity against NDM-1 (+) Klebsiella pneumoniae 2146 assessed as inhibition of bacterial growth incubated for 18 hrs by agar dilution method
[7] = test system: Klebsiella pneumoniae; assay: Antibacterial activity against ESBLs (+) Klebsiella pneumoniae 16-14 assessed as inhibition of bacterial growth incubated for 18 hrs by agar dilution method
[8] = test system: Klebsiella pneumoniae; assay: Antibacterial activity against NDM-1 (+) Klebsiella pneumoniae 09-20 assessed as inhibition of bacterial growth incubated for 18 hrs by agar dilution method
[9] = test system: Pseudomonas aeruginosa; assay: Antibacterial activity against BL (+) Pseudomonas aeruginosa ATCC 27853 assessed as inhibition of bacterial growth incubated for 18 hrs by agar dilution method
[10] = test system: Pseudomonas aeruginosa; assay: Antibacterial activity against Pseudomonas aeruginosa PAO1 assessed as inhibition of bacterial growth incubated for 18 hrs by agar dilution method
[11] = test system: Pseudomonas aeruginosa; assay: Synergistic antibacterial activity against Pseudomonas aeruginosa PAO1 assessed as aztreonam MIC upto […] ug/ml incubated for 18 hrs by checkerboard method (reference value: 8 microg/ml)

Structure (SMILES)	MIC [1] [µg/mL]	MIC [2] [µg/mL]	MIC [3] [µg/mL]	MIC [4] [µg/mL]	MIC [5] [µg/mL]	MIC [6] [µg/mL]	MIC [7] [µg/mL]	MIC [8] [µg/mL]	MIC [9] [µg/mL]	MIC [10] [µg/mL]	MIC [11] [µg/mL]
C=CCO/N=C(\C(=O)N[C@@H]1C(=O)N(S(=O)(=O)O)[C@H]1C)c1nsc(N)n1	8 (≈ 20.5 µM)	64 (≈ 164 µM)	16 (≈ 41 µM)	> 64	> 64	> 64	> 64	> 64	> 64	64 (≈ 164 µM)	–
C[C@H]1COc2c(N3CCN(C)CC3)c(F)cc3c(=O)c(C(=O)O)cn1c23 [LEVOFLOXACIN ANHYDROUS]	≤ 0.03	8 (≈ 22.1 µM)	–	16 (≈ 44.3 µM)	–	128 (≈ 354 µM)	–	16 (≈ 44.3 µM)	–	–	–
CC(C)[C@H](O/N=C(\C(=O)N[C@@H]1C(=O)N(OS(=O)(=O)O)C1(C)C)c1csc(N)n1)C(=O)O	0.25 (≈ 0.521 µM)	0.5 (≈ 1.04 µM)	0.125 (≈ 0.261 µM)	0.25 (≈ 0.521 µM)	2 (≈ 4.17 µM)	1 (≈ 2.09 µM)	0.125 (≈ 0.261 µM)	0.25 (≈ 0.521 µM)	8 (≈ 16.7 µM)	4 (≈ 8.34 µM)	–
COc1ccc(CCC(=O)N[C@@H](CCCN)C(=O)Nc2ccc3ccccc3c2)cc1	–	–	–	–	–	–	–	–	–	–	8
C[C@H]1[C@H](NC(=O)/C(=N\OCC(=O)N2CCC[C@@H]2C(=O)O)c2nsc(N)n2)C(=O)N1S(=O)(=O)O	1 (≈ 1.98 µM)	8 (≈ 15.8 µM)	1 (≈ 1.98 µM)	> 64	> 64	> 64	> 64	16 (≈ 31.7 µM)	> 64	> 64	–
C#CCO/N=C(\C(=O)N[C@@H]1C(=O)N(S(=O)(=O)O)[C@H]1C)c1nsc(N)n1	8 (≈ 20.6 µM)	32 (≈ 82.4 µM)	16 (≈ 41.2 µM)	> 64	> 64	> 64	> 64	> 64	64 (≈ 165 µM)	16 (≈ 41.2 µM)	–
NCCC[C@H](NC(=O)C[C@H](N)c1ccccc1)C(=O)Nc1ccc2ccccc2c1	–	–	–	–	–	–	–	–	–	–	8
C[C@H]1[C@H](NC(=O)/C(=N\OCC(=O)N2CCC[C@@H]2C(=O)O)c2csc(N)n2)C(=O)N1S(=O)(=O)O	0.12 (≈ 0.238 µM)	8 (≈ 15.9 µM)	0.12 (≈ 0.238 µM)	> 64	> 64	> 64	16 (≈ 31.7 µM)	2 (≈ 3.96 µM)	> 64	32 (≈ 63.4 µM)	–
CC(C)[C@@H](O/N=C(\C(=O)N[C@@H]1C(=O)N(OS(=O)(=O)O)C1(C)C)c1csc(N)n1)C(=O)O	16 (≈ 33.4 µM)	32 (≈ 66.7 µM)	8 (≈ 16.7 µM)	32 (≈ 66.7 µM)	64 (≈ 133 µM)	> 64	16 (≈ 33.4 µM)	16 (≈ 33.4 µM)	> 64	> 64	–
C[C@H]1[C@H](NC(=O)/C(=N\OC(C)(C)C(=O)N2CCC[C@@H]2C(=O)O)c2csc(N)n2)C(=O)N1S(=O)(=O)O	2 (≈ 3.76 µM)	64 (≈ 120 µM)	1 (≈ 1.88 µM)	> 64	> 64	> 64	> 64	16 (≈ 30 µM)	32 (≈ 60.1 µM)	8 (≈ 15 µM)	–
NCCC[C@H](NC(=O)CCc1cc(F)cc(F)c1)C(=O)Nc1ccc2ccccc2c1	–	–	–	–	–	–	–	–	–	–	2
NCCC[C@H](NC(=O)c1ccc2ccccc2c1)C(=O)N[C@@H](CCc1ccccc1)C(=O)O	–	–	–	–	–	–	–	–	–	–	8
NCCC[C@H](NC(=O)CCCc1ccccc1)C(=O)Nc1ccc2ccccc2c1	–	–	–	–	–	–	–	–	–	–	8
CCOC(=O)[C@H](CCc1ccccc1)NC(=O)[C@H](CCCN)NC(=O)c1ccc2ccccc2c1	–	–	–	–	–	–	–	–	–	–	8
C[C@H]1[C@H](NC(=O)/C(=N\OCC(=O)N2CCC(C(=O)O)C2)c2csc(N)n2)C(=O)N1S(=O)(=O)O (stereo not given in full)	1 (≈ 1.98 µM)	16 (≈ 31.7 µM)	2 (≈ 3.96 µM)	> 64	> 64	> 64	> 64	32 (≈ 63.4 µM)	> 64	> 64	–
C[C@H](O/N=C(\C(=O)N[C@@H]1C(=O)N(OS(=O)(=O)O)C1(C)C)c1csc(N)n1)C(=O)O	0.25 (≈ 0.554 µM)	–	0.125 (≈ 0.277 µM)	0.25 (≈ 0.554 µM)	8 (≈ 17.7 µM)	4 (≈ 8.86 µM)	0.25 (≈ 0.554 µM)	0.5 (≈ 1.11 µM)	16 (≈ 35.4 µM)	16 (≈ 35.4 µM)	–
